Results as given in PMC4324493, “Synthesis, ^68Ga-Radiolabeling, and Preliminary In Vivo Assessment of a Depsipeptide-Derived Compound as a Potential PET/CT Infection Imaging Agent” (BioMed Research International, 2015).
Residues, ends and D or L forms follow the SMILES beside them. No end group written: not given here. *: point of attachment. DOTA = O=C(O)CN1CCN(CC(=O)O)CCN(CC(=O)*)CCN(CC(=O)O)CC1

Tests used:
[1] = system: E. coli (ATCC 25922); experiment: Bacterial association assay (MALDI-TOF-MS), E. coli; assay type: binding, Escherichia coli; details: for Kd: E. coli 1.5 × 10^8 CFU, 20-100 μM compound, 37°C, 3 h, MALDI-TOF-MS, read-out: affinity binding constant (K); for bacterial binding and internalization (qualitative): E. coli, membrane-associated (sample 1) and cell-internalized (sample 2) fractions by MALDI-TOF-MS
Experimental: (§1) MALDI-TOF-MS analysis was performed on an Autoflex III MALDI-TOF mass spectrometer (Bruker, Coventry, United Kingdom) with a 337 nm nitrogen laser operating in a linear mode at an accelerated voltage of 20 kV. The α-cyano-4-hydroxycinnamic acid matrix was applied: the matrix solution was prepared by making a saturated solution of the matrix powder into TA30 solution (30% ACN and 70% water containing 0.1% TFA). A MALDI plate-sandwich method was used by spotting the compounds between spots of matrix solution. Analyses were done in triplicates; spectra were collected manually and the mass peak intensities were recorded. S. aur and E. coli strains were cultured at 37°C overnight and tested with the peptide (TBIA101), the peptide-conjugate (DOTA-TBIA101), and the gallium(III)-complexed derivative (^natGa-DOTA-TBIA101). The bacterial concentration was kept at 1.5 × 10^8 colony forming units (CFU). Five different concentrations (20, 40, 60, 80, and 100 μM) of the above-mentioned compounds were used for all experiments, following the described method. The final reaction volume was 600 μL. Bacteria and compound mixtures were incubated at 37°C in an orbital shaker at 100 rpm for 3 h. After incubation, the cells were centrifuged at 3000 ×g for 20 min and the supernatant was removed. The bacterial pellet was washed twice with 200 μL of phosphate buffered saline (pH 7.4) and 200 μL of 80% ACN containing 0.1% TFA was added to dissolve the pellet followed by vigorous mixing followed by centrifugation at 3000 ×g for 20 min. The supernatant (sample 1) was collected, representing the membrane-associated compound fraction. The residual pellet was treated with 200 μL of 80% ACN (sample 2), representing the cell-internalized compound fraction. Bacterial persistence in samples 1 and 2 was qualified with MALDI-TOF-MS.

[2] = in vitro; assay type: cell-based; details: human; for CC50 at 120 h: MT-4 cells
Experimental: The reduction of 2,3-bis-(2-methoxy-4-nitro-5-sulfophenyl)-2-H-tetrazolium-5-carboxanilide (XTT) was used to determine the cellular cytotoxicity of TBIA101, DOTA-TBIA101, and ^natGa-DOTA-TBIA101, as described by Scudiero et al.. MT-4 cells were obtained through the NIH AIDS Reagent Program, Division of AIDS, NIAID, NIH: MT-4 from Dr. Douglas Richman and were cultured and all incubations were done in RPMI medium containing 10% fetal calf serum at 37°C and 5% CO2-atmosphere. A 6 × 10^5 cells/mL concentration was used to seed cells into 96-well culture plates (total cell number of 2 × 10^4 per well) followed by exposure to eight 5-fold dilutions of the stock compound solutions (1 mg/mL). The plates were incubated for 5 days before XTT was added to react for 4 h. Formazan production was quantified, measuring absorbance at 450 nm (reference wavelength 620 nm), and related to the absorbance of untreated control cells (RPMI background). Cytotoxicity was determined by extrapolating the inhibitory concentration at 50% (IC50).

[3] = system: Staphylococcus aureus (ATCC 25923) (S. aur); experiment: Bacterial association assay (MALDI-TOF-MS), S. aur; assay type: binding; details: for affinity binding constant (K): S. aur 1.5 × 10^8 CFU, 20-100 μM compound, 37°C, 3 h, MALDI-TOF-MS; for bacterial binding and internalization (qualitative): S. aur, membrane-associated (sample 1) and cell-internalized (sample 2) fractions by MALDI-TOF-MS
Experimental: as §1

Row | Compound | Kd [1] [nM] | bacterial binding and internalization (qualitative) [1] | CC50 at 120 h [2] [µM] | affinity binding constant (K) [3] [nM] | bacterial binding and internalization (qualitative) [3] | IC50 at 5 days [2] [µM]
1 | CC[C@H](C)[C@H](NC(=O)CNC(=O)CNC(=O)CN1CCN(CC(=O)O)CCN(CC(=O)O)CCN(CC(=O)O)CC1)C(=O)N[C@H](C(=O)N[C@@H](CC(C)C)C(=O)N[C@H](C(=O)N1CCC[C@H]1C(=O)N[C@@H](CC(C)C)C(=O)N1CCC[C@H]1C(N)=O)C(C)C)[C@@H](C)O [DOTA-TBIA101] ({DOTA}-GGITLVPLP-NH2) | 0.028 ± 0.006 | binding and no detectable internalization | 42.1 | 0.029 ± 0.006 | binding and no detectable internalization | –
2 | CC[C@H](C)[C@H](NC(=O)[C@@H](NC(=O)[C@H](CC(C)C)NC(=O)[C@@H](NC(=O)[C@@H]1CCCN1C(=O)[C@H](CC(C)C)NC(=O)[C@@H]1CCCN1C(=O)CN1CCN(CC(=O)O)CCN(CC(=O)O)CCN(CC(=O)O)CC1)C(C)C)[C@@H](C)O)C(=O)NCC(=O)NCC(N)=O [natGa-DOTA-TBIA101, metal not drawn] ({DOTA}-PLPVLTIGG-NH2) | 2.58 ± 1.04 | internalization | – | 2.97 ± 0.86 | internalization | 33.7
3 | GGITLVPLP-NH2 (C-terminus assumed) [TBIA101] | 0.022 ± 0.006 | binding and internalization | 63.2 | 0.023 ± 0.007 | binding and internalization | –
